Patent publication US20250145624A1, “MEMBRANE-ASSOCIATED TYROSINE- AND THREONINE-SPECIFIC CDC2-INHIBITORY KINASE (PKMYT1) INHIBITORS AND USES THEREOF” (Insilico Medicine IP Limited, priority 2022, published 2025)

Legend:
PKMYT1 (MYT1) = PKMYT1 (MYT1) (Homo sapiens (Human), UniProt Q99640); experiment: PKMYT1 HTRF Assay; type: binding; details: Tracer 178, GST-Tb; compound 10 μM to 0.5 nM
Experimental: Example A: PKMYT1 HTRF Assay
(§1) Compound serial dilution is performed by Echo, and the final concentrations vary from 10 μM to 0.5 nM. This was filled by the addition of 5 μL/well of Enzyme solution to the assay plate containing the compound. The plate was centrifuged at 1000 rpm for 1 minute, and incubate 15 minutes at 25° C. Then 5 μL/well of tracer solution (Tracer 178) was added to initiate the reaction, and incubate for 60 minutes at 25° C. Next 5 μL GST-Tb was added into the assay plate, the plate was centrifuged at 1000 rpm for 1 minute, and incubate for 15 minutes at 25° C. The assay plate was read on Envision.

WEE1 = WEE1 (Homo sapiens (Human), UniProt P30291); experiment: WEE1 ADP-Glo Assay; type: biochemical; details: compound 10 μM to 0.5 nM
WEE1, sequence (P30291 whole entry): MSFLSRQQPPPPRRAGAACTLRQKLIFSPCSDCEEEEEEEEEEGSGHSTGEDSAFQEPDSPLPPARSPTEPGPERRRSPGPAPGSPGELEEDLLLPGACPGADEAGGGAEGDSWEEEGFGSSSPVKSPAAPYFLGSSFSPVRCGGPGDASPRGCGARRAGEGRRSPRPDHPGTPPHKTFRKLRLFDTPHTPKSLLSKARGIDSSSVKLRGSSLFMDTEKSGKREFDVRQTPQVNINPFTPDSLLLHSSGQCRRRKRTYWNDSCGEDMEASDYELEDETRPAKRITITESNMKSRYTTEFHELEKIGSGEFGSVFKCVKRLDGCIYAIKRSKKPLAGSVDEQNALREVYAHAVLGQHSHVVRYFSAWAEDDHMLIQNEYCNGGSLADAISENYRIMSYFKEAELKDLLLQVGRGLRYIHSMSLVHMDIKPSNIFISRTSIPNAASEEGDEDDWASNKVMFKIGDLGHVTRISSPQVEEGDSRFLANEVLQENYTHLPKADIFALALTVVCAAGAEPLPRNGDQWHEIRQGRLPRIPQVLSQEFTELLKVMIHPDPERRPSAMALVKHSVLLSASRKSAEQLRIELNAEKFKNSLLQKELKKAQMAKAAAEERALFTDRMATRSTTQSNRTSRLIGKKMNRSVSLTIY
Experimental: Example B: WEE1 ADP-Glo Assay
as §1, with “of substrate” for “of tracer”, “solution” for “solution (Tracer 178)”, “Next 10” for “Next 5”, “μL kinase detection reagent” for “μL GST-Tb”, “for 60” for “for 15”, “on Envision for US LUM as RLU.” for “on Envision.”

PKMYT1 (MYT1), sequence (Q99640 whole entry): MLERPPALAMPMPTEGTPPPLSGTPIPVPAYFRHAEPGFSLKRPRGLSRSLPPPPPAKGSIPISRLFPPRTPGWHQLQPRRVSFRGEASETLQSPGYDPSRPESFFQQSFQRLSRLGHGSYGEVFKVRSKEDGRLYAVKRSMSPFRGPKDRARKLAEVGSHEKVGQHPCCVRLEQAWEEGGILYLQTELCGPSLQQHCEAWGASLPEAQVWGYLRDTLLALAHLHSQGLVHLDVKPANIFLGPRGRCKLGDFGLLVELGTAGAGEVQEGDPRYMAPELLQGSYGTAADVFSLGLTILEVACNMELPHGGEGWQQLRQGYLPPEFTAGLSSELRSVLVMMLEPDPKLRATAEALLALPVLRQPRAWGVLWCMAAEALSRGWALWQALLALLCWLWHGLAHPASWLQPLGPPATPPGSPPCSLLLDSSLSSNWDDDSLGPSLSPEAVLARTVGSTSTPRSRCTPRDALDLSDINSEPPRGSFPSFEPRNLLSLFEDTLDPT

| Structure (SMILES) | IC50 (PKMYT1 (MYT1)) [µM] | IC50 (WEE1) [µM] |
| --- | --- | --- |
| Cc1nc2c3c(c(N)n(-c4c(C)ccc(O)c4C)c3n1)C(=O)NCC2 [Example 3, 1-amino-2-(3-hydroxy-2,6-dimethylphenyl)-4-methyl-2,6,7,8-tetrahydro-9H-2,3,5,8-tetraazabenzo[cd]azulen-9-one] | < 0.01 | – |
| Cc1ccc(O)c(C)c1-n1c(N)c2c3c(c(C)ncc31)CCNC2=O [Example 2, 1-amino-2-(3-hydroxy-2,6-dimethylphenyl)-5-methyl-2,6,7,8-tetrahydro-9H-2,4,8-triazabenzo[cd]azulen-9-one] | 0.01 to 0.05 | > 10 |
| Cc1ccc(O)c(C)c1-n1c(N)c2c3c(c(C)cnc31)CCNC2=O [Example 1, 1-amino-2-(3-hydroxy-2,6-dimethylphenyl)-5-methyl-2,6,7,8-tetrahydro-9H-2,3,8-triazabenzo[cd]azulen-9-one] | < 0.01 | 1.21 |
